A short description of data set [1]: Hydrolytic stability at pH 4–7. The conditions noted are these: pH range of 4–7, room temperature. The format is physicochemical. On the procedure:
To determine whether the salt form of UA improved its bioavailability, the amount and concentration of usnate in the tumors, liver, and plasma of CT26 syngeneic tumor xenograft-bearing mice were measured by LC-MS/MS analysis. UA or KU was administered orally at a dose of 30 mg/kg at 7 days after CT26 cell inoculation, and the tumor tissues, liver tissues, and plasma of mice were collected after 16 h. […] Assuming that the density of tumor tissue is 0.1 to 1.0 mL/g, the concentration of usnate in tumor tissue is about 1.51 to 15.1 μM. Similarly, the amounts of usnate detected in liver tissues were 0.2788 ± 0.034 nmol/g of tissue for UA and 2.5789 ± 0.402 nmol/g of tissue for KU administered mice (Fig. 2C); the plasma concentrations of usnate were 0.181 ± 0.016 μM for UA and 1.690 ± 0.122 μM for KU administered mice (Fig. 2D).
Supplementary Figure 3. The stability of UA at the pH range of 4–7 in room temperature. (A) UA stability at pH 7.0. (B) UA stability at pH 6.8. (A) UA stability at pH 6.0. (A) UA stability at pH 4.5

Data set [2] concerns colorectal cancer cells (HCT116, DLD1, SW480, HT29, SW620, Caco2, COLO320, CT26). Description: Cell viability assay (MTT). The format is cell-based, human; mouse (CT26). The settings on record: 48 h, 12.5–100 μM. As to the method: The human colorectal cancer cell lines HCT116, DLD1, SW480, HT29, SW620, Caco2, and COLO320, and the mouse colorectal cancer cell line CT26, were used in this study. Cells were cultured in DMEM supplemented with 10% fetal bovine serum and 1% Penicillin-Streptomycin solution under a humidified 5% CO2 atmosphere at 37 °C in an incubator.
Colorectal cancer cell growth and survival were detected with the colorimetric quantification of 3-(4,5-dimethylthiazol-2-yl)-2,5-diphenyltetrazolium bromide using the MTT assay. Briefly, cells were seeded and cultured in 96-well plates (2.5 × 10^3 cells/well), and treated with UA or KU for 48 h. After DMSO dissolution, the absorbance at 540 nm was determined using a microplate reader with Gen 5 (2.03.1) software (BioTek Eon, VT, USA).

A short description of data set [3]: Usnate distribution by LC-MS/MS after oral administration in CT26 syngeneic mouse tumor xenograft model. The format is in vivo. The settings on record: 30 mg/kg oral, 16 h after dosing; CT26 xenograft mice. On the procedure: Stock solutions (10 mM) of UA or KU were prepared by dissolution in DMSO. Stock standard solutions were stored at −20 °C. A working standard solution was prepared by dilution of the stock standard solution with a mixture of acetonitrile-water (1:1, v/v). The working standard solution was serially diluted to prepare a concentration series of 0.975, 3.9, 15.6, 62.5, 250, 1000, and 4000 nM in 50% acetonitrile.
Skin tumor xenografts were established using CT26 cells. After 7 days of inoculation and gross tumor formation, UA or KU at 30 mg/kg was administered orally, and tumor, liver, and plasma samples were collected after 16 h (n = 9 each). Mouse tumor and liver samples were homogenized in four volumes of ice-cold deionized water. Plasma and homogenized tissue samples were prepared for analysis in a 96-well cluster tube plate by protein precipitation. A volume of 30 µL of each sample was transferred to eight-well tube strips placed in an 8 × 12 rack (VWR, Emeryville, CA, USA). Four volumes of ice-cold extraction solution (acetonitrile) containing 4-methylumbelliferone (4-MUF, internal standard) were added and vortexed for 10 min. After sonication for 30 min, samples were placed on ice for 1 h. The 96-well cluster tube plate was centrifuged at 1000 × g for 10 min, and the supernatant was analyzed by LC-MS/MS. Standard samples were prepared in the same manner using a blank matrix.
Samples were analyzed with the Prominence UPLC system (Shimadzu, Japan) equipped with an API 3200 QTRAP™ LC-MS/MS system (Applied Biosystems, Foster City, CA, USA). Sample volumes of 10 μL were injected into an Aquity HSS UPLC C18 column (2.5 × 100 mm, 1.8 µm i.d.; Waters, Milford, MA, USA) and maintained at 30 °C. The column was pre-equilibrated in 100% v/v solvent A (deionized water containing 0.1% v/v formic acid)/0% v/v solvent B (acetonitrile containing 0.1% v/v formic acid) at a flow rate of 0.3 mL/min. […] The samples were analyzed via multiple reaction monitoring. […]

Data set [4] in a line: Water solubility by μSol Method. Type of data set: physicochemical. The settings on record: 25 °C, pH 7.4, μSol Method with DMSO stock solution.
Data set [5] has as its system Twist, Snail, and Slug protein in Caco2 cells. Description: Western blotting of EMT markers in Caco2 cells. The format is cell-based, human. The conditions noted are these: 24 h. As to the method: Cells treated with UA or KU for 24 h were washed twice with ice-cold PBS and lysed in lysisbuffer. Antibodies against E-cadherin (61018, BD Biosciences, San Diego, CA, USA), N-cadherin (610921, BD Biosciences), Snail/Slug (ab180714, Abcam, Cambridge, MA, USA), Twist (ab49254, Abcam), PARP (9542, Cell Signaling), Caspase-3 (9662, Cell Signaling), α-Tubulin (2125, Cell Signaling), and ZEB2 (HPA003456, Sigma) were detected with horseradish peroxidase-conjugated secondary antibody (Thermo Fisher Scientific, Waltham, MA, USA) with the use of Immobilon Western Chemiluminescent HRP Substrate Kit (Merck Millipore, Billerica, MA, USA) and luminescence imaging (Image Quant LAS 4000 mini). Multi-Gauge 3.0 was used to measure bands, and relative density was calculated based on the density of the α-tubulin bands in each sample. Expression of values were as arbitrary densitometric units corresponding to signal intensity.
On the technique in general: Immunoblotting shows a protein as a band on a membrane.

The test system of data set [6] is N-cadherin, Snail, Twist, Slug, and ZEB2 mRNA in Caco2 cells. Description: qRT-PCR of EMT markers in Caco2 cells. The settings on record: 5 μM. Type of data set: cell-based, human. As to the method:
Quantitative RT-PCR (qRT-PCR) was performed as previously described. Briefly, total RNA ([…]) isolated from UA- or KU-treated Caco2 cells using RNAiso Plus (TaKaRa, Otsu, Shiga 520–2193, Japan) was used to synthesize cDNA using a M-MLV reverse transcriptase kit (Invitrogen, Carlsbad, CA, USA) and SYBR green (Enzynomics, Seoul, Korea). The primers used for real-time PCR were as follows: E-cadherin (forward) 5′-[…]-3′ and (reverse) 5′-[…]-3′; N-cadherin (forward) 5′-[…]-3′ and (reverse) 5′-[…]-3′; Snail (forward) 5′-[…]-3′ and (reverse) 5′-tgggagacacatcggtcga-3′; Twist (forward) 5′-cgggagtccgcagtctta-3′ and (reverse) 5′-[…]-3′; Slug (forward) 5′-[…]-3′ and (reverse) 5′-[…]-3′; ZEB1(forward) 5′-atgacacaggaaaggaagg-3′ and (reverse) 5′-agcagtgtcttgttgtag-3′; ZEB2 (forward) 5′-caagaggcgcaaacaagcc-3′ and (reverse) 5′-[…]-3′; CAPN1 (forward) 5′-[…]-3′ and (reverse) 5′-[…]-3′; CDC42 (forward) 5′-[…]-3′ and (reverse) 5′-[…]-3′; CFL1 (forward) 5′-caaggatgccatcaagaa-3′ and (reverse) 5′-atccttagcctcctcgta-3′; IGF1 (forward) 5′-[…]-3′ and (reverse) 5′-[…]-3′; WASF1 (forward) 5′-[…]-3′ and (reverse) 5′-[…]-3′; WASL (forward) 5′-[…]-3′ and (reverse) 5′-[…]-3′; and GAPDH (forward) 5′-[…]-3′ and (reverse) 5′-[…]-3′. qRT-PCR reactions and analyses were performed using CFX (Bio-Rad, Hercules, CA, USA).
(In general: In qPCR the cycle at which signal appears reflects the starting amount.)

For data set [7], the system named is Caco2, HCT116, and CT26 cells. Description: Cell invasion assay (Boyden chamber). Type of data set: cell-based, human; mouse (CT26). The conditions noted are these: 5 μM, 24 h, vs control. On the procedure:
Invasion assays were performed in Boyden chambers (Corning, New York, USA)[16]. A 120 μL Cells (2 × 10^6) suspended in medium (DMEM containing 0.2% BSA dissolved in PBS) treated with or without UA or KU were seeded in the upper transwell chamber (Corning, New York, USA) coated with gelatin. Then, fibronectin (10 μg/mL) was added into the lower chamber medium (400 μL) as a chemotactic agent.Then invaded cells adhering to the underneath of upper chamber were fixed and stained with the Diff Quik kit (Sysmex) after 24 h of incubation. The quantitation of the cells were performed under an upright microscope (5 fields/chamber). Each invasion assay was repeated in three independent experiments.

In data set [8] the test system is CAPN1, CDC42, CFL1, IGF1, WASF1, and WASL in Caco2 cells. The experiment in a line: Cell motility-related gene expression (RT2 profiler PCR / qRT-PCR) in Caco2 cells. Type of data set: cell-based, human. The settings on record: same concentration for UA and KU. As to the method:
The RT² Profiler™ PCR Array (330231, SA Biosciences, Qiagen, Courtaboeuf, France) was used to examine the expression patterns of 84 genes involved in human cell motility as previouslydescribed. The manufacturer’s instructions were strictly followed. Gene expression levels were analyzed using the web-based software ‘RT2 Profiler PCR Array Data Analysis version 3.5′. Six cell motility-related genes, including CAPN1, CDC42, CFL1, IGF1, WASF1, and WASL, were selected as candidates.
Quantitative RT-PCR (qRT-PCR) was performed as previously described. Briefly, total RNA ([…]) isolated from UA- or KU-treated Caco2 cells using RNAiso Plus (TaKaRa, Otsu, Shiga 520–2193, Japan) was used to synthesize cDNA using a M-MLV reverse transcriptase kit (Invitrogen, Carlsbad, CA, USA) and SYBR green (Enzynomics, Seoul, Korea). […]

Data set [9] relates to CT26 cells expressing firefly luciferase (CT26-Fluc). The experiment in a line: Orthotopic liver metastasis model (CT26-Fluc, intrasplenic injection). The format is in vivo, BALB/c mice. The settings on record: 5 or 10 mg/kg intraperitoneal. On the procedure: Five-week-old male BALB/c mice with pathogen-free condition were obtained from Orient Company (Seongnam, Korea). According to the Guiding Principles in the Care and Use of Animals (DHEW publication, NIH 80–23), the handling of animals and all in vivo experiments were performed. The Chonnam National University Medical School Research Institutional Animal Care and Use Committee approved the experimental protocol.
A syngeneic mouse model of colorectal cancer metastasis to the liver was established by infusion of tumor cells into the portal system via intrasplenic injection. […] For optical live imaging in this model, a splenectomy was performed immediately after inoculation of tumor cell, and the firefly luciferase activity was analyzed at several time points with the Xenogen system. […] Weight of tumor was determined by subtracting the average weight of liver of normal mice (n = 4) from the weight of total tumor-bearing liver with addition of the weight of total extrahepatic tumors. […] To evaluate inhibition of tumor growth, mice were analyzed every 7 days with the use of optical imaging. […] Metastatic tumor nodules in the liver with a diameter of >1.0 mm were counted using a microscope, and a metastasis score was assigned based on nodule size as follows: 0 (no gross metastasis), 1 (tumor size >1 mm), and 10 (tumor size >5 mm). […]

Where “and” joins values, the source holds several entries; their conditions need not be identical. Identical values can stand only once.

The values that follow come from publication PMC6214985, “Potassium usnate, a water-soluble usnic acid salt, shows enhanced bioavailability and inhibits invasion and metastasis in colorectal cancer” (Scientific Reports, 2018).

With Usnic acid [UA], the hydrolytic stability entry in data set [1] was “consistent”. Also, the “cytotoxic activity (cell viability)” value in data set [2] is reported as “showed cytotoxic activity in all the tested colorectal cancer cells”. Further, in data set [3], the “amount of usnate in liver tissues” value was 0.2788 ± 0.034 nmol/g of tissue, the “amount of usnate in tumor tissues” value is on record as “undetectable” and the “plasma concentration of usnate” value is 181 ± 16 nM. In addition, in [4], the water solubility is 52.2 ± 2.90 μM and 17.7 ± 0.20 μg/mL. For the same substance, the “protein level of Twist, Snail, and Slug” value in data set [5] was “downregulated”. The “mRNA levels of N-cadherin, Snail, Twist, Slug, and ZEB2” value in [6] is “significantly decreased”. Moreover, the “number of invaded cells / invasion” value in [7] is recorded as “lower in the UA-treated groups than in the control groups”. Further, the “expression of cell motility-related genes CAPN1, CDC42, CFL1, IGF1, WASF1, and WASL” value in data set [8] is “only CFL1 and IGF1 gene expression levels were decreased”. For the same substance, in [9], the “inhibitory effect on metastasis in vivo” value is listed as “no significant inhibitory effect on metastasis”. Also, in [9] (six or ten times within 2 weeks, vs control), the metastasis score entry is “did not detect a statistically significant difference”.
